Where “and” joins values, the source holds several entries; their conditions need not be identical. Equal entries are not always repeated. Where two headings read alike, the source gives them in different places.
Key:
POS-1 [1] = biological target: T1, POS-1 (Caenorhabditis elegans, UniProt G5EF15); test: Fluorescence polarization screening of POS-1 binding to fluorescein-labeled BMF018 RNA; conditions: for remaining activity at 192 µM: read-out: POS-1 score; for IC50: further screening as described above (fluorescence polarization), dose response
T1 construct: 6-his tag (N); made in house; host or cells: E. coli BL21 (DE3) Gold
T1 sequence (G5EF15 80-180): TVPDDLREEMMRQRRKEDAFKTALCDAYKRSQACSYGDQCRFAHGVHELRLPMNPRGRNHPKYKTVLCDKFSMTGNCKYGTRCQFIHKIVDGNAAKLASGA

POS-1 [2] = biological target: T1, POS-1; test: Dose response gel shift assay, POS-1 with MEX-3 UTR fragment RNA; type: binding; conditions: 120 nM POS-1, 2-3 nM fluorescein labeled MEX-3 UTR fragment RNA
Procedure: (§1) A further dose response assay was performed on select compounds of the invention as described below. A sub-saturating concentration of MEX-5 or POS-1 (120 nM) was equilibrated with limiting fluorescein labeled RNA (2-3 nM, TCR2 RNA or MEX-3 UTR fragment RNA respectively) in the presence of varying concentrations of compound. Following equilibration, the reactions were loaded onto a 5% slab polyacrylamide gel and subjected to electrophoresis for about 1 hour to separate protein-RNA complex from free RNA. The gel was scanned on a FUJI FLA-5000 imager, and the fraction of bound RNA determined by dividing the intensity of the bound RNA by the intensity of the bound RNA plus the free RNA. The […] was plotted as a function of compound concentration and fit to a sigmoidal dose response function in order to determine the IC50, the concentration that gives half maximal inhibition.

MEX-5 [3] = biological target: T2, MEX-5 (Caenorhabditis elegans, UniProt Q9XUB2); test: Fluorescence polarization screening of MEX-5 binding to fluorescein-labeled TCR2 RNA; conditions: for IC50: further screening as described above (fluorescence polarization), dose response; for remaining activity at 192 µM: read-out: MEX-5 score
T2 construct: The fragment of mex-5 containing the TZF domain (amino acids 236-350) was amplified; made in house; host or cells: Escherichia coli JM109
T2 sequence (Q9XUB2 236-350): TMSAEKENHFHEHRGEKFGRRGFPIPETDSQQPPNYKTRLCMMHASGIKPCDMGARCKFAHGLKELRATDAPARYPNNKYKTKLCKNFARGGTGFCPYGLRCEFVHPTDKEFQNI
Text: The expression and purification of recombinant MEX-5 protein has previously been described in Pagano, J. M., Farley, B. M., McCoig, L. M. and Ryder, S. P. (2007) “Molecular basis of RNA recognition by the embryonic polarity determinant MEX-5;” J Biol Chem; 282, 8883-8894. The fragment of mex-5 containing the TZF domain (amino acids 236-350) was amplified from a commercially available ORFeome clone (Open Biosystems) and sub-cloned into the vector pMal-c (NEB), which encodes maltose binding protein as an N-terminal fusion. This construct is termed pMal-MEX-5 (236-350).
MEX-5 is expressed in Escherchia. coli JM109 liquid cultures grown at 37° C. Cultures were induced during mid log phase by the addition of 0.1 mM isopropyl 1-thio-β-D-galactopyranoside (IPTG) and allowed to grow for three hours. An amount of 100 μM zinc acetate (final concentration) was added at the time of induction. The pelleted cells were resuspended in lysis buffer (50 mM Tris pH 8.8, 200 mM NaCl, 2 mM DTT, EDTA free protease inhibitor tablet (Roche), 100 μM Zn(OAc)2) and lysed by sonication. The soluble protein was purified in three steps using standard chromatography methods: (1) amylose affinity (NEB), (2) Hi-TRAP-Q (GE Healthcare), and (3) Hi-TRAP-S (GE Healthcare). The Q buffer was composed of 50 mM Tris, pH 8.8, 20 mM-1500 mM NaCl, 2 mM DTT, and 100 μM Zn(OAc)2. The S buffer was composed of 50 mM MOPS, pH 6.0, 20 mM-1500 mM NaCl, 2 mM DTT, 100 μM Zn(OAc)2. The pure fractions, determined by coomassie-stained SDS-PAGE, were dialyzed into storage buffer (20 mM Tris, pH 8.0, 25 mM NaCl, 100 μM Zn(OAc)2, 2 mM DTT). The protein concentration was determined by measuring absorbance at 280 nm and the calculated extinction coefficient. The protein was stored at 50 μM concentration at 4° C.
All RNA oligonucleotides were chemically synthesized by Dharmacon or Integrated DNA Technologies. Upon arrival, each RNA was deprotected and stored according to the manufacturer's instructions. Prior to use, the RNA was resuspended in 10 mM Tris-HCl, pH 8.0, 0.1 mM EDTA, and the concentration determined by UV spectrophotometry using the calculated extinction coefficient at 260 nm based on the specific sequence. The sequence of the MEX-5 binding RNA (TCR2) is […] (SEQ ID NO:1). The POS-1 binding RNA (BMF018) is […] (SEQ ID NO:2). The MEX-3 binding RNA (SEQ 14) is […] (SEQ ID NO:3).
The RNA used for the small molecule screen was labeled at the 3′-end with fluorescein by Dharmacon during synthesis. In a few cases, follow up experiments were performed with post-synthetically labeled RNA. In this case, fluorescein 5-thiosemicarbazide (FTSC, Invitrogen) was used to 3′-end label each RNA after treatment with sodium periodate (see Reines, S. A. and Cantor, C. R. (1974) “New fluorescent hydrazide reagents for the oxidized 3′-terminus of RNA” Nucleic Acids Res. 1, 767-786). A representative 50 μl reaction consisted of 0.5 nanomoles RNA, 100 mM NaOAc, pH 5.1, and 5 nanomoles NaIO4. After the reaction was complete (90 minutes at room temperature), the sample was ethanol precipitated by adding 1 μl RNase free glycogen (Invitrogen 20 μg/μl), 1/20th volume of 5 M NaCl, and 2 volumes of 100% ice-cold ethanol. The resulting pellet was resuspended in 50 μl of 100 mM NaOAc, pH 5.1 containing 1 mM FTSC and was allowed to react overnight at 4° C. in the dark. The unreacted label was removed by ethanol precipitation with resuspension of the pellet in a small volume of TE, and purification over a Roche G-25 size exclusion spin column. The labeling efficiency is determined by calculating the ratio of fluorescein absorbance at 490 nm to RNA-fluorescein absorbance at 260 nm. Typical efficiencies are 60-80%.
The ability of MEX-5 to associate with RNA was monitored by fluorescence polarization using a victor V3 or victor V2V plate reader (Perkin Elmer) in 384-well FluoTrak microplates (Grenier). […]

MEX-5 [4] = biological target: T2, MEX-5; test: Dose response gel shift assay, MEX-5 with TCR2 RNA; type: binding; conditions: 120 nM MEX-5, 2-3 nM fluorescein labeled TCR2 RNA
Procedure: as §1

MEX-3 = test: Fluorescence polarization screening of MEX-3 binding to fluorescein-labeled SEQ 14 RNA; conditions: 192 μM test compound; 80 nM MBP-MEX-3, no zinc acetate; lowest score = greatest inhibition
[5] = tested on: Caenorhabditis elegans N2 strain worms; test: C. elegans viability/sterility assay (gonad microinjection); type: in vivo
Procedure: Young adult worms with a single row of embryos were selected for microinjection. Each worm was mounted on a dried agarose padded coverslip in halocarbon oil. Varying concentrations of compound, or a DMSO control, were microinjected into each gonad arm of the worm using an inverted microscope with DIC optics. Injected worms were then allowed to recover for 2-3 hours at 15° C. Approximately 10-40 worms were injected per compound tested. Individual worms that survived microinjection were singled out onto new NGM agar plates and allowed to recover overnight at 15° C. The plates were moved to room temperature the next morning. At the end of the day, the adult worm was transferred to a new plate. The embryos laid on each plate were monitored for hatching and inspected for unusual phenotypes. Nematode fertility was estimated by counting the total number of progeny on both plates. Viability was estimated by monitoring the extent of hatching.

[6] = 192 μM test compound, score = polarization relative to no-drug and no-protein controls, 0.25 = 75% inhibition, lowest score = greatest inhibition
[7] = count per individual injected worm (Worm No. 1-6), Day 2

Row | Compound | remaining activity at 192 µM (POS-1 [1]; [6]) | IC50 (MEX-5 [3]) | IC50 (MEX-5 [4]) | remaining activity at 192 µM (MEX-5 [3]; [6]) | other results
1 | COc1nnc(-c2ccc(C)c(S(=O)(=O)NCC3CCCO3)c2)c2ccccc12 (stereo not shown) [DD] | 7.5% | – | – | – | IC50 (POS-1 [1]): 300 µM; IC50 (POS-1 [2]): 260 µM
2 | O=C(CSc1nc2ccccc2s1)Nc1ccc(S(=O)(=O)Nc2nccs2)cc1 [DG] | 10.9% | 160 µM | 170 µM | – | –
3 | O=C(O)c1ccc(NC(=S)NC(=O)c2ccc(I)cc2)cc1 [AE] | 3.61% | – | – | 8.11% | MEX-3 score (MEX-3): 0.1624
4 | CCOc1ccc(NS(=O)(=O)c2ccc(C)c(C(N)=O)c2)cc1 [EY] | – | – | – | – | MEX-3 score (MEX-3): 0.08965
5 | CC(=O)Oc1ccccc1-c1nc2s/c(=C3\C(=O)N(CC(N)=O)c4ccccc43)c(=O)n2n1 [C] | -2.48% | 33 µM | 9.5 µM | -2.09% | IC50 (POS-1 [1]): 7 µM; IC50 (POS-1 [2]): 5.1 µM
6 | COc1ccc(S(=O)(=O)Nc2ccccc2NS(=O)(=O)c2ccc(OC)cc2)cc1 [E] | -1.62% | 1.5 µM | 2 µM | -1.07% | IC50 (POS-1 [1]): 0.32 µM; IC50 (POS-1 [2]): 0.17 µM; Day 1 Hatchlings ([5]; count per individual injected worm (Worm No. 1-6), Day 1): 11 and 34 and 2 and 6 and 4 and 67; Day 2 Embryos [5, 7]: 0; Day 2 Hatchlings [5, 7]: 0; Day 1 Embryos ([5]; count per individual injected worm (Worm No. 1-6), unhatched embryos on plate, Day 1): 1 and 0 (4×) and 2; Effect on worm fertility ([5]; microinjection into each gonad arm, compared with DMSO controls): may sterilize worms at a stage prior to fertilization
7 | Sc1nnc(COc2cccc3ccccc23)n1-c1ccccc1 [BO] | – | 75 µM | 120 µM | 19% | IC50 (POS-1 [1]): 16 µM; IC50 (POS-1 [2]): 33 µM
8 | COc1ccc(Cl)cc1C(=O)Nc1ccc(S(=O)(=O)Nc2nccs2)cc1 [BK] | – | 540 µM | 110 µM | 18.4% | –
9 | O=[N+]([O-])c1cccc(/C(=N\O)Nc2nnc(-c3cccnc3)s2)c1 [EZ] | – | – | – | – | MEX-3 score (MEX-3): 0.124
10 | CCS(=O)(=O)Nc1ccccc1NS(=O)(=O)CC [BR] | – | 39 µM | 78 µM | 19.9% | IC50 (POS-1 [1]): 820 µM; IC50 (POS-1 [2]): 150 µM
11 | COc1ccc(CCNC(=O)c2ccc(C(=O)NCCc3ccc(OC)c(OC)c3)nc2)cc1OC [EX] | – | – | – | – | MEX-3 score (MEX-3): 0.0674
12 | CCOC(=O)c1sc(NC(=S)NC(=O)c2cc3ccccc3o2)c(C(=O)OCC)c1C [FB] | – | – | – | – | MEX-3 score (MEX-3): 0.2585
13 | COc1ccc(N2C(=O)NC(=O)/C(=C/c3cccc(OC(=O)c4cccs4)c3)C2=O)cc1Cl [AV] | – | – | – | – | remaining activity at 192 µM (MEX-5 [3]): 14%; remaining activity at 192 µM (POS-1 [1]): 10.9%
14 | O=C1NN(c2ccccc2)C(=O)/C1=C\c1cccc(OC(=O)c2cccs2)c1 [CA] | 23% | – | – | 21.6% | –
15 | O=[N+]([O-])c1ccc(NS(=O)(=O)c2ccccc2)c(NS(=O)(=O)c2ccccc2)c1 [AQ] | 11.6% | – | – | 12.4% | –
16 | CCn1c(-c2cc(Br)ccc2O)n[nH]c1=S [AU] | 24.8% | – | – | 13.4% | –
17 | O=c1cc(-c2ccccc2)c2ccc(O)c(O)c2o1 [I] | 0.543% | – | – | -0.142% | –
18 | O=C1C2CC=C(Cl)CC2C(=O)N1c1nnc[nH]1 (stereo not shown) [DJ] | 13.8% | 3.5 µM | 3.8 µM | – | –
19 | COc1cc2ccccc2cc1C(=O)NC(=S)Nc1cccc(C(=O)O)c1 [BS] | 24.3% | – | – | 20% | –
20 | Cc1ccc(C(CC(=O)N2CCCC2)c2ccco2)cc1 (stereo not shown) [FA] | – | – | – | – | MEX-3 score (MEX-3): 0.2093
21 | O=C(Oc1ccc2ccccc2c1)c1ccc2c(c1)C1C=CCC1C(C(=O)O)N2 (stereo not shown) [H] | 1.95% | – | – | -0.336% | –
